Test results taken from patent US11147816B2, “Composition for inducing differentiation and protection of neural stem cells and method for inducing neuro-regeneration using the same composition” (GENUV Inc., priority 2016, dated 2021).
Entries after “also recorded” stand apart in the source; their conditions may differ. Read-outs that look alike come from different tables or passages of the source.

Assays:
[1] = tested on: mouse embryonic neural stem cells; assay: qRT-PCR of relative mRNA expression of neuronal markers in mouse embryonic NSC (Examples 4-1, 4-2, 6); format: cell-based; details: 10 μM (10000 nM)
Procedure: Isopropanol (Ducsan, GyunggiDo, Korea, cat#. 67-63-0) was added and mixed for RNA isolation, then centrifuged again to remove the supernatant and obtain the pellet. The RNA pellet was resuspended in 75% ethanol (Ducsan, cat#. 64-17-15), centrifuged, and the supernatant removed. The pellet was then resuspended in sterilized triple distilled water to obtain the mRNA, incubated for 10 minutes at 55° C., and stored at −80° C.
Sterilized triple distilled water, […] oligo dT, and 1 mM dNTP were added to the RNA and incubated for 5 minutes at 65° C. This was followed by the addition of 5X First-strand buffer, 10 mM DTT, and M-MLV reverse transcriptase and incubated at 42° C. for 1 hour, then at 72° C. for 15 minutes, and at 4° C. for 30 minutes. The synthesized cDNA was stored at −20° C.
The term relative mRNA expression level signifies that in order to normalize each group's total RNA level, the mRNA expression level of each differentiation marker is divided by the expression level of GAPDH whose expression level is fairly constant across cells, and then the values of each test material are compared with those of the controls (undifferentiated NSC) in each group.

[2] = tested on: mouse embryonic neural stem cells; assay: Immunocytochemistry analysis, Tuj1 and DAPI staining (Example 3); format: cell-based; details: 4 days
Procedure: Tuj1 (Neuron specific class III beta-tubulin) is a neuron specific marker protein, which was conjugated to rhodamine to show fluorescent red, while DAPI binds to the cell DNA and stains the cell nuclei fluorescent blue. […] The medium was removed and the cells were washed with PBS. After fixing with 10% formaldehyde (Sigma cat#. HT501128) at room temperature for 10 minutes, they were washed again with PBS. They were permeabilized with 0.2% Triton X-100 (Sigma, cat#. 93443) at room temperature for 15 minutes, washed with PBS, and incubated with 10% BSA (Sigma, cat#. A2153)+1% normal goat serum (Vector lab, Burlingame, Calif., cat#. S1000) at room temperature for 1 hour. […] The solution was removed, washed with PBS, and incubated at room temperature for 1 hour with the secondary antibody (rhodamine-conjugated antibody) diluted in 1% BSA+1% normal goat serum at a ratio of 1:200. Then, the cells were washed with PBS, incubated with 5 μg/ml DAPI (Sigma, cat#. D9542) for 5 minutes, washed with PBS again, and mounted on a slide glass for analysis with a fluorescent microscope.

[3] = tested on: mouse embryonic neural stem cells; assay: Morphology analysis of NSC differentiation in mouse embryonic neural stem cells (Examples 1, 6); format: cell-based; details: for concentration at which differentiation morphology starts: tested at 0.1, 1.0, 10 μM
Procedure: Neural stem cells were isolated from the brain of a day 14.5 mouse embryo, treated with 10 ng/ml human basic fibroblast growth factor (bFGF) (Peprotech, Princeton, NG, cat#.100-18B) and 20 ng/ml human epidermal growth factor (EGF) (Peprotech, cat#. AF-100-15) in a N2 culture medium, and cultured in suspension in a 25 cm2 flask (Nunc, Pittsburgh, Pa.) for 4 days. Formation of neurospheres was observed after 2 days.
In order to isolate single cells, 6-well plates were prepared the day before by treating the wells with 15 μg/ml poly-L-ornithine (Sigma, St. Louis, Mo., cat#.P2533) solution and incubating overnight at 37° C. for coating. The day of the single cell isolation, poly-L-ornithine solution was removed, the plates were washed with PBS three times, and 10 μg/ml fibronectin (Gibco, Waltham, Mass., cat#. 33016015) solution was added and incubated at 37° C. for 2 hours for coating.
Various concentrations of the compound of [Formula 1] […]

[4] = tested on: mouse adult neural stem cells; details: for cell protection and NSC differentiation under amyloid-beta cytotoxicity: 10 μM amyloid-beta, each at its optimal concentration (AS703026 10, AZD8330 1, PD318088 1, binimetinib 10, refametinib 1, PD0325901 10, RO5126766 10 μM); for cell toxicity / cell death (morphology): AS703026 10 μM; for concentration at which the differentiation-inducing effect starts: no amyloid-beta
Procedure: NSC were isolated from the subventricular zone of week 8 mouse brain, treated with 20 ng/ml human basic fibroblast growth factor (bFGF) and 20 ng/ml human epidermal growth factor (EGF) in an IPM medium, and cultured as a suspension in 24-well plates for 7 days.
Two days before the isolation of single cells, 6-well plates were prepared by treating the wells with 10 μg/ml poly-L-ornithine solution and incubating overnight at room temperature for coating. The next day, poly-L-ornithine solution was removed and the plates were washed 3 times with sterilized triple distilled water. […] The culture solution used is N2 culture medium (supplemented with 20 ng/ml bFGF and 20 ng/ml EGF). Right before seeding, the coating solution was suctioned out, and the single cells were uniformly seeded into the culture plate before the plate dried up. Cells were allowed to attach to the plates for about one minute, and after checking that cells were sufficiently attached, an additional 1.5 ml of culture medium (N2 culture medium with 20 ng/ml bFGF and 20 ng/ml EGF) was added to the cells and cultured in a 37° C. incubator for 24 hours.
Wells not treated with amyloid-beta were left to use as negative controls.
Gibco's (Waltham, Mass.) human Aβ (1-42) was purchased to use for the amyloid-beta (Aβ), and the following process was followed to create oligomers. First, amyloid-beta was dissolved in 100% HFIP (1,1,1,3,3,3-hexafluoro-2-propanol) (Sigma, cat#.105228) to obtain a concentration of 1 mg/ml and vortexed at room temperature for 1 hour. Then, it was dried for 10 minutes in a speed Vac, after which DMSO (Sigma, cat#.D2650) was added to bring the concentration to 5 mM and then lightly vortexed at room temperature for 10 minutes. […] The solution was incubated at 4° C. for 24 hours and then added into the cultured cells.
The NCSs were cultured with the daily addition of EGF, bFGF, amyloid-beta, and test materials for 4 days.

MEK 1, MEK2 = details: literature reference; cited from earlier work
MEK2 = MEK2 (Homo sapiens (Human), UniProt P36507); details: cited from earlier work
MEK1 = MEK1 (Homo sapiens (Human), UniProt Q02750); details: cited from earlier work
[5] = trametinib 10 nM, 100 nM, memantine 5 μM, 10 μM, 4 days
[6] = 1.0 μM and 10 μM, day 2 of culture
[7] = 1.0 nM and 10 nM, day 2 of culture

Chain of MEK1 (Q02750 whole entry, species assumed): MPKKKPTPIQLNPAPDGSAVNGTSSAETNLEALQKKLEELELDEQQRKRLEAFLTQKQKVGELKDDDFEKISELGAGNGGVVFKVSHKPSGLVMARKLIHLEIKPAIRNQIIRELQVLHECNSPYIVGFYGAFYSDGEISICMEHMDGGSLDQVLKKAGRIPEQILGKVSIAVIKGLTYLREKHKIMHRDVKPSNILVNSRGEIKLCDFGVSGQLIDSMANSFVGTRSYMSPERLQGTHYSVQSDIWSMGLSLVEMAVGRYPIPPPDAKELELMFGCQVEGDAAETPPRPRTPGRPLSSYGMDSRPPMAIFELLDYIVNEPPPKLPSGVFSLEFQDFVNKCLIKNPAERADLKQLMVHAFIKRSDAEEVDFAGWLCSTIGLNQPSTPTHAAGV
Chain of MEK2 (P36507 whole entry, species assumed): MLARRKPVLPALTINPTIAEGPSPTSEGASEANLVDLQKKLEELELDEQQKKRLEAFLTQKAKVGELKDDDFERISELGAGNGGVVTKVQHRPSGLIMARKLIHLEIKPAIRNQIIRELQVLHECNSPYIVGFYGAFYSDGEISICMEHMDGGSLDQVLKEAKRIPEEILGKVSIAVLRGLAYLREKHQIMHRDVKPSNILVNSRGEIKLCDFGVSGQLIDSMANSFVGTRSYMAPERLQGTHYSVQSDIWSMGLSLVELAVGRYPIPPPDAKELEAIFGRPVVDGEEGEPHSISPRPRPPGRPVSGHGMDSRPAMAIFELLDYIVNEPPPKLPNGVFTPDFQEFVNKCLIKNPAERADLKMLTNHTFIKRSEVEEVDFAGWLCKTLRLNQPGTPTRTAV

Compound: O=C(NC[C@H](O)CO)c1ccncc1Nc1ccc(I)cc1F [AS703026]
- Tuj1 and TH mRNA expression compared with trametinib [1]: comparable to those of 25 nM trametinib
- neuron differentiation by Tuj1 staining ([2]; 0.1 μM): no differentiation was observed
- neuron differentiation by Tuj1 staining ([2]; 1.0 μM): neuron differentiation occurs at this concentration, albeit only to a marginal extent
- concentration required for neuronal differentiation to initiate ([3]; added daily, 4 days of culture): 1.0 µM
- concentration at which differentiation morphology starts ([3]; day 2 of culture): 10 μM
- cell protection and NSC differentiation under amyloid-beta cytotoxicity ([4]; day 2): provided cell protection and induced the differentiation of NSC
- concentration required for neuronal differentiation ([4]; regardless of 10 μM amyloid-beta treatment, 4 days): 10 µM
- cell toxicity / cell death (morphology) [4, 5]: did not elicit cell toxicity

Compound: Cc1cc(C(=O)NOCCO)c(Nc2ccc(I)cc2F)n(C)c1=O [AZD8330]
- concentration at which differentiation morphology starts ([3]; day 2 of culture): 1.0 μM
- cell protection and NSC differentiation under amyloid-beta cytotoxicity ([4]; day 2): provided cell protection and induced the differentiation of NSC

Compound: O=C(NOCC1CC1)c1ccc(F)c(F)c1Nc1ccc(I)cc1Cl [PD184352]
- NSC differentiation-inducing effect (morphology) ([3]; 0.1 μM, day 2 of culture): only a weak NSC differentiation-inducing effect
- cell death (morphology) [3, 6]: all the cells died

Compound: O=C(NOCC(O)CO)c1cc(Br)c(F)c(F)c1Nc1ccc(I)cc1F (stereo not drawn) [PD318088]
- concentration at which differentiation morphology starts ([3]; day 2 of culture): 1.0 μM
- cell protection and NSC differentiation under amyloid-beta cytotoxicity ([4]; day 2): provided cell protection and induced the differentiation of NSC

Compound: O=C(NOC[C@H](O)CO)c1ccc(F)c(F)c1Nc1ccc(I)cc1F [PD0325901]
- concentration at which the differentiation-inducing effect starts ([4]; day 2 of culture): 0.1 µM

Compound: CNS(=O)(=O)Nc1nccc(Cc2c(C)c3ccc(Oc4ncccn4)cc3oc2=O)c1F [RO5126766]
- cell protection and NSC differentiation under amyloid-beta cytotoxicity ([4]; day 2): provided cell protection and induced the differentiation of NSC
- concentration at which the differentiation-inducing effect starts ([4]; day 2 of culture): 1.0 µM

Compound: N#CC(=C(/N)Sc1ccccc1N)/C(C#N)=C(\N)Sc1ccccc1N [U0126]
- cell proliferation (morphology) ([4]; 0.1 μM and 1.0 μM, day 2 of culture): inhibition of cell proliferation
- differentiation-inducing effect (morphology) ([4]; 2.5 μM, day 2 of culture): did not show any clear differentiation-inducing effect
- cytotoxicity (morphology) ([4]; 10 μM, day 2 of culture): showed cell cytotoxicity
- NSC differentiation-inducing effect (morphology) ([4]; all concentrations tested): failed to show any NSC differentiation-inducing effect

Compound: Cn1cnc2c(F)c(Nc3ccc(Br)cc3F)c(C(=O)NOCCO)cc21 [binimetinib]
- IC50 (MEK 1, MEK2): 12 nM
- concentration at which differentiation morphology starts ([3]; day 2 of culture): 10 μM
- cell protection and NSC differentiation under amyloid-beta cytotoxicity ([4]; day 2): provided cell protection and induced the differentiation of NSC

Compound: O=C(c1ccc(F)c(F)c1Nc1ccc(I)cc1F)N1CC(O)([C@@H]2CCCCN2)C1 [cobimetinib]
- IC50 (MEK2): 199 nM
- selectivity toward MEK1 compared with MEK2 (MEK1; Molecules 2017;22:1551): ≥ 100 ×
- IC50 (MEK1): 0.95 nM
- differentiation of adult NSC (morphology) ([4]; 10 μM, regardless of amyloid-beta, day 2): did not induce the differentiation of adult NSC; also recorded: does not induce the differentiation of mouse adult neural stem cells

Compound: CC12CC3CC(C)(C1)CC(N)(C3)C2 [memantine]
- cell toxicity / cell death (morphology) [4, 5]: death of neural stem cells
- differentiation of NSC into neurons (morphology) ([4]; with or without 10 μM oligomeric Aβ(1-42), trametinib 10 nM, 100 nM, memantine 5 μM, 10 μM, 4 days): the differentiation of NSC into neurons was not observed

Compound: COc1cc(F)c(F)c(Nc2ccc(I)cc2F)c1NS(=O)(=O)C1(C[C@H](O)CO)CC1 [refametinib]
- concentration at which differentiation morphology starts ([3]; day 2 of culture): 1.0 μM
- cell protection and NSC differentiation under amyloid-beta cytotoxicity ([4]; day 2): provided cell protection and induced the differentiation of NSC

Compound: BI847325
- cell proliferation (morphology) [4, 7]: cell proliferation seemed to be somewhat inhibited
- differentiation-inducing effect (morphology) [4, 7]: a differentiation-inducing effect was not observed
- differentiation-inducing effect (morphology) ([4]; 0.1 μM, day 2 of culture): only a weak differentiation-inducing effect
- cell death (morphology) [4, 6]: all the cells died
